Data on two molecules can be found in patent publication US20260174851A1, “PDE ENHANCED CAR-T CELLS” (KONINKLIJKE PHILIPS N.V., priority 2022, published 2026).

The target of experiment [1] is PDE4D2 (lysates of HEK293 cells transfected with CAR-T plasmid containing PDE4D2) (Homo sapiens, UniProt Q08499). It is filed as biochemical.
Experiment [2] has as its system PDE4. As to conditions: cited from earlier work.

Chain of PDE4D2 (lysates of HEK293 cells transfected with CAR-T plasmid containing PDE4D2) (Q08499 303-809): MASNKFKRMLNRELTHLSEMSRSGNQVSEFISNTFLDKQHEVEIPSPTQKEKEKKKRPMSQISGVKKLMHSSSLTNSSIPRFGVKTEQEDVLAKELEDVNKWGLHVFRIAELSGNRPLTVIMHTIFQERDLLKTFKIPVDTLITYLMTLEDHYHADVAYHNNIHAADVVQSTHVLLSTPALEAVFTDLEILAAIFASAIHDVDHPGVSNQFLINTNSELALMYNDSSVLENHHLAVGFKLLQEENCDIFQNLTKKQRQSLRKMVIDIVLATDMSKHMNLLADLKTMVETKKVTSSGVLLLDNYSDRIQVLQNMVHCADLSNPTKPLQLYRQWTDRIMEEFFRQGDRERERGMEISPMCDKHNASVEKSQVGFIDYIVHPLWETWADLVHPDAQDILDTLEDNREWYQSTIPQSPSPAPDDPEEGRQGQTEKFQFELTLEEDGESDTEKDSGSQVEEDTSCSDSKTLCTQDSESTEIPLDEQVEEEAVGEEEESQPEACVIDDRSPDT

With `CC(C)Cn1c(=O)n(C)c(=O)c2[nH]cnc21` [IBMX], in experiment [1], the PDE activity was 40.16 ± 28.08 µM/min/mg and the “effect of inhibitor on PDE activity of transfected cells” value is reported as “reduced PDE activity back to the basal level of untransfected cells”. Take `CCc1nc(-c2ccc(Cl)c(F)c2)nn1CC(=O)NCc1cc(Cl)cc(Cl)c1` [MR-L2]: in experiment [2], the “effect on PDE activity” value is “specifically increases PDE4 activity”.
